Patent publication US20240101531A1, “PYRIDINAMINE DERIVATIVES AND THEIR USE AS POTASSIUM CHANNEL MODULATORS” (Xenon Pharmaceuticals Inc., priority 2022, published 2024)
pEC50: −log10 of the molar value. Structures can show the parent of a compound that is named as a salt.

These compounds were tested against human KV7.2/KV7.3 (Homo sapiens (Human), UniProt O43525+O43526) (assay: Potassium flux assay (IPG-2 AM dye)). Conditions: TREX HEK 293 or HEK 293 cells expressing human KV7.2/KV7.3; arithmetic mean values.
Format: cell-based
Outline: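 HEK 293 or TREX HEK 293 cells stably expressing human KV7.2/KV7.3 (tetracycline-induced where needed), loaded with IPG-2 AM, then compound for 20 min at room temperature. Flux triggered by K challenge buffer (10 mM KCl, pH 7.4), read at 530/558 nm; EC50 from 16-point 2-fold series from 30 μM, normalised to DMSO and reference modulator.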

SMILES | pEC50
Clc1ccc(Nc2nccc3cc(OCCc4ccccn4)ccc23)cn1 [Example 183, N-(6-chloropyridin-3-yl)-6-(2-(pyridin-2-yl)ethoxy)isoquinolin-1-amine] | 5.00 to 6.00
FC(F)(F)OCCOc1ccc2c(Nc3ccc(Cl)nc3)nccc2c1 [Example 184, N-(6-chloropyridin-3-yl)-6-(2-(trifluoromethoxy)ethoxy)isoquinolin-1-amine] | 5.00 to 6.00
Clc1ccc(Nc2nccc3cc(OCCCn4ccnc4)ccc23)cn1 [Example 185, 6-(3-(1H-imidazol-1-yl)propoxy)-N-(6-chloropyridin-3-yl)isoquinolin-1-amine] | 5.00 to 6.00
COc1ncc(COc2ccc3c(Nc4ccc(Cl)nc4)nccc3c2)cn1 [Example 186, N-(6-chloropyridin-3-yl)-6-((2-methoxypyrimidin-5-yl)methoxy)isoquinolin-1-amine] | 5.00 to 6.00
COc1cc(Nc2nccc3cc(OCC4(C)COC4)ccc23)cnc1C [Example 187, N-(5-methoxy-6-methylpyridin-3-yl)-6-((3-methyloxetan-3-yl)methoxy)isoquinolin-1-amine formate] | > 6.00
CCn1ccc(COc2ccc3c(Nc4ccc(Cl)nc4)nccc3c2)n1 [Example 188, N-(6-chloropyridin-3-yl)-6-((1-ethyl-1H-pyrazol-3-yl)methoxy)isoquinolin-1-amine formate] | 5.00 to 6.00
Cc1ncc(Nc2nccc3cc(OCC4(F)CC4)ccc23)cn1 [Example 189, 6-((1-fluorocyclopropyl)methoxy)-N-(2-methylpyrimidin-5-yl)isoquinolin-1-amine] | > 6.00
Cc1ccc(Nc2nccc3cc(OCC4(F)CC4)ccc23)cn1 [Example 190, 6-((1-fluorocyclopropyl)methoxy)-N-(6-methylpyridin-3-yl)isoquinolin-1-amine] | 5.00 to 6.00
CS(=O)(=O)CCCOc1ccc2c(Nc3ccc(Cl)nc3)nccc2c1 [Example 191, N-(6-chloropyridin-3-yl)-6-(3-(methylsulfonyl)propoxy)isoquinolin-1-amine] | 5.00 to 6.00
Clc1ccc(Nc2nccc3cc(OCc4ccncc4)ccc23)cn1 [Example 192, N-(6-chloropyridin-3-yl)-6-(pyridin-4-ylmethoxy)isoquinolin-1-amine] | > 6.00
Clc1ccc(Nc2nccc3cc(OCc4ncccn4)ccc23)cn1 [Example 193, N-(6-chloropyridin-3-yl)-6-(pyrimidin-2-ylmethoxy)isoquinolin-1-amine] | 5.00 to 6.00
Cc1ccc(COc2ccc3c(Nc4ccc(Cl)nc4)nccc3c2)cn1 [Example 194, N-(6-chloropyridin-3-yl)-6-((6-methylpyridin-3-yl)methoxy)isoquinolin-1-amine] | > 6.00
Clc1ccc(Nc2nccc3cc(OCc4cccnc4)ccc23)cn1 [Example 195, N-(6-chloropyridin-3-yl)-6-(pyridin-3-ylmethoxy)isoquinolin-1-amine] | > 6.00
Cn1cc(COc2ccc3c(Nc4ccc(Cl)nc4)nccc3c2)cn1 [Example 196, N-(6-chloropyridin-3-yl)-6-((1-methyl-1H-pyrazol-4-yl)methoxy)isoquinolin-1-amine] | > 6.00
Clc1ccc(Nc2nccc3cc(OC4CCOCC4)ccc23)cn1 [Example 197, N-(6-chloropyridin-3-yl)-6-((tetrahydro-2H-pyran-4-yl)oxy)isoquinolin-1-amine] | > 6.00
Cn1ccnc1COc1ccc2c(Nc3ccc(Cl)nc3)nccc2c1 [Example 198, N-(6-chloropyridin-3-yl)-6-((1-methyl-1H-imidazol-2-yl)methoxy)isoquinolin-1-amine] | 5.00 to 6.00
Cc1ncc(Nc2nccc3cc(OCc4ccncc4)ccc23)cn1 [Example 199, N-(2-methylpyrimidin-5-yl)-6-(pyridin-4-ylmethoxy)isoquinolin-1-amine] | 5.00 to 6.00
Cc1ccc(Nc2nccc3cc(OCc4ccncc4)ccc23)cn1 [Example 200, N-(6-methylpyridin-3-yl)-6-(pyridin-4-ylmethoxy)isoquinolin-1-amine] | 5.00 to 6.00
Clc1ccc(Nc2nccc3cc(OCCN4CCOCC4)ccc23)cn1 [Example 201, N-(6-chloropyridin-3-yl)-6-(2-morpholinoethoxy)isoquinolin-1-amine] | 5.00 to 6.00
Clc1ncc(Nc2nccc3cc(OCc4ccncc4)ccc23)cn1 [Example 202, N-(2-chloropyrimidin-5-yl)-6-(pyridin-4-ylmethoxy)isoquinolin-1-amine] | > 6.00
Cn1ccc(COc2ccc3c(Nc4cnc(Cl)nc4)nccc3c2)n1 [Example 203, N-(2-chloropyrimidin-5-yl)-6-((1-methyl-1H-pyrazol-3-yl)methoxy)isoquinolin-1-amine] | > 6.00
Cc1cn(C)nc1COc1ccc2c(Nc3ccc(Cl)nc3)nccc2c1 [Example 204, N-(6-chloropyridin-3-yl)-6-((1,4-dimethyl-1H-pyrazol-3-yl)methoxy)isoquinolin-1-amine] | 5.00 to 6.00

SMILES | pEC50
Cc1ncc(Nc2nccc3cc(OCc4cnn(C)c4)ccc23)cn1 [Example 205, 6-((1-methyl-1H-pyrazol-4-yl)methoxy)-N-(2-methylpyrimidin-5-yl)isoquinolin-1-amine] | > 6.00
Cc1ncc(Nc2nccc3cc(OCc4ccn(C)n4)ccc23)cn1 [Example 206, 6-((1-methyl-1H-pyrazol-3-yl)methoxy)-N-(2-methylpyrimidin-5-yl)isoquinolin-1-amine] | 5.00 to 6.00
N#CC1(COc2ccc3c(Nc4cnc(Cl)nc4)nccc3c2)CC1 [Example 207, 1-(((1-((2-chloropyrimidin-5-yl)amino)isoquinolin-6-yl)oxy)methyl)cyclopropane-1-carbonitrile] | > 6.00
N#CC1(COc2ccc3c(Nc4cnc(Cl)nc4)nccc3c2)COC1 [Example 208, 3-(((1-((2-chloropyrimidin-5-yl)amino)isoquinolin-6-yl)oxy)methyl)oxetane-3-carbonitrile] | > 6.00
CC1(C)CC(COc2ccc3c(Nc4ccc(Cl)nc4)nccc3c2)O1 (centres unmarked) [Example 209, N-(6-chloropyridin-3-yl)-6-((4,4-dimethyloxetan-2-yl)methoxy)isoquinolin-1-amine] | 5.00 to 6.00
CC1(COc2ccc3c(Nc4ccc(Cl)nc4)nccc3c2)COC1 [Example 210, N-(6-chloropyridin-3-yl)-6-((3-methyloxetan-3-yl)methoxy)isoquinolin-1-amine] | > 6.00
Clc1ccc(Nc2nccc3cc(OCc4ncco4)ccc23)cn1 [Example 211, N-(6-chloropyridin-3-yl)-6-(oxazol-2-ylmethoxy)isoquinolin-1-amine] | 5.00 to 6.00
Clc1ccc(Nc2nccc3cc(OCc4nccs4)ccc23)cn1 [Example 212, N-(6-chloropyridin-3-yl)-6-(thiazol-2-ylmethoxy)isoquinolin-1-amine] | 5.00 to 6.00
Clc1ncc(Nc2nccc3cc(OCC4COC4)ccc23)cn1 [Example 213, N-(2-chloropyrimidin-5-yl)-6-(oxetan-3-ylmethoxy)isoquinolin-1-amine] | > 6.00
Cc1ccc(Nc2nccc3cc(OCC4COC4)ccc23)cn1 [Example 214, N-(6-methylpyridin-3-yl)-6-(oxetan-3-ylmethoxy)isoquinolin-1-amine] | 5.00 to 6.00
Clc1ccc(Nc2nccc3cc(OCc4ccon4)ccc23)cn1 [Example 215, N-(6-chloropyridin-3-yl)-6-(isoxazol-3-ylmethoxy)isoquinolin-1-amine] | > 6.00
Clc1ccc(Nc2nccc3cc(OC4CCCOC4)ccc23)cn1 (centres unmarked) [Example 216, N-(6-chloropyridin-3-yl)-6-((tetrahydro-2H-pyran-3-yl)oxy)isoquinolin-1-amine] | > 6.00
Clc1ccc(Nc2nccc3cc(OCC4CCCO4)ccc23)cn1 (centres unmarked) [Example 217, N-(6-chloropyridin-3-yl)-6-((tetrahydrofuran-2-yl)methoxy)isoquinolin-1-amine] | 5.00 to 6.00
Cc1ncc(Nc2nccc3cc(OCC4(C)COC4)ccc23)cn1 [Example 218, 6-((3-methyloxetan-3-yl)methoxy)-N-(2-methylpyrimidin-5-yl)isoquinolin-1-amine] | > 6.00
COC1(COc2ccc3c(Nc4cnc(C)nc4)nccc3c2)COC1 [Example 219, 6-((3-methoxyoxetan-3-yl)methoxy)-N-(2-methylpyrimidin-5-yl)isoquinolin-1-amine formate] | 5.00 to 6.00
COC1(COc2ccc3c(Nc4ccc(Cl)nc4)nccc3c2)COC1 [Example 220, N-(6-chloropyridin-3-yl)-6-((3-methoxyoxetan-3-yl)methoxy)isoquinolin-1-amine] | > 6.00
Cc1ncc(Nc2nccc3cc(OCC4COC4)ccc23)cn1 [Example 221, N-(2-methylpyrimidin-5-yl)-6-(oxetan-3-ylmethoxy)isoquinolin-1-amine] | 5.00 to 6.00
Cc1ncc(Nc2nccc3cc(OCc4ccon4)ccc23)cn1 [Example 222, 6-(isoxazol-3-ylmethoxy)-N-(2-methylpyrimidin-5-yl)isoquinolin-1-amine] | 5.00 to 6.00
Clc1ccc(Nc2nccc3cc(OCC4COC4)ccc23)cn1 [Example 223, N-(6-chloropyridin-3-yl)-6-(oxetan-3-ylmethoxy)isoquinolin-1-amine] | > 6.00
C[C@@](O)(COc1ccc2c(Nc3ccc(Cl)nc3)nccc2c1)C(F)(F)F [Example 224, (R)-3-((1-((6-chloropyridin-3-yl)amino)isoquinolin-6-yl)oxy)-1,1,1-trifluoro-2-methylpropan-2-ol] | > 6.00
C[C@](O)(COc1ccc2c(Nc3ccc(Cl)nc3)nccc2c1)C(F)(F)F [Example 225, (S)-3-((1-((6-chloropyridin-3-yl)amino)isoquinolin-6-yl)oxy)-1,1,1-trifluoro-2-methylpropan-2-ol] | 5.00 to 6.00
NC(COc1ccc2c(Nc3ccc(Cl)nc3)nccc2c1)C(F)(F)F (centres unmarked) [Example 226, 6-(2-amino-3,3,3-trifluoropropoxy)-N-(6-chloropyridin-3-yl)isoquinolin-1-amine] | 5.00 to 6.00
